From PubChem BioAssay (NCI)
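Protocol summary: plate cells (96-well), add compound at 5 concentrations, incubate 48 h, interpolate endpoints linearly. GI50 is the concentration that inhibits growth by half. Definition used: TGI = concentration required for complete inhibition of growth.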

How the values were obtained:
Experiment in all cases: DTP human tumour cell line panel, 48 h
MDA-MB-435 = system: MDA-MB-435
UACC-62 melanoma = system: UACC-62 melanoma
HT29 colon = system: HT29 colon
SW-620 colon = system: SW-620 colon
UO-31 renal = system: UO-31 renal
K-562 leukemia = system: K-562 leukemia
A498 renal = system: A498 renal
M14 melanoma = system: M14 melanoma
MCF7 breast = system: MCF7 breast
SK-OV-3 ovarian = system: SK-OV-3 ovarian

Compound	GI50 (MDA-MB-435) [nM]	TGI (MDA-MB-435) [µM]	GI50 (UACC-62 melanoma) [nM]	TGI (UACC-62 melanoma) [µM]	GI50 (HT29 colon) [nM]	TGI (HT29 colon) [µM]	GI50 (SW-620 colon) [nM]	TGI (SW-620 colon) [µM]	GI50 (UO-31 renal) [nM]	TGI (UO-31 renal) [µM]	GI50 (K-562 leukemia) [nM]	TGI (K-562 leukemia) [µM]	GI50 (A498 renal) [nM]	TGI (A498 renal) [µM]	GI50 (M14 melanoma) [nM]	TGI (M14 melanoma) [µM]	GI50 (MCF7 breast) [nM]	TGI (MCF7 breast) [µM]	GI50 (SK-OV-3 ovarian) [nM]	TGI (SK-OV-3 ovarian) [µM]
COc1cc(/C=C/C(=O)N2CCN(C(=O)c3cc(OC)c(OC)c(OC)c3)CC2)ccc1OCCCOc1cc2c(cc1OC)C(=O)N1CCC[C@H]1C=N2	178	0.343	162	0.338	340	12.8	198	0.446	1980	6.56	324	> 100	205	0.51	346	1.42	109	0.636	551	> 71.3
O=C(O)c1ccc(C(=O)O)c(C(=O)Nc2ccc3c(c2)C(=O)c2ccccc2-3)c1		> 100		> 100		> 100		> 100		> 100		> 100		> 100		> 100		> 100		> 100
O=C(Nc1ccc(/C=C/c2ccc(NC(=O)c3cc(S(=O)(=O)O)c4cccnc4c3O)cc2S(=O)(=O)O)c(S(=O)(=O)O)c1)c1cc(S(=O)(=O)O)c2cccnc2c1O	> 56700	> 74.1	2500	37.6	32100	> 100	17800	> 83.8	24500	> 69	12000	> 75.2	46600	> 64.4	7180	> 49	38500	> 100	> 38900	> 100
N#C[Se]CCCNS(=O)(=O)C1CC2C=CC1C2 (centres undefined)	361	1.31	1590	3.38	386	5.31	1790	5.56	338	1.43	1780	> 41.6	652	2.09	231	0.655	588	5.55	2770	5.65
O=C1c2cccc(NCCN=Cc3ccccc3O)c2C(=O)c2c(NCCN=Cc3ccccc3O)cccc21	1160	2.87	1590	4.86	298	1.93	258	1.38	596	3.06	406	5.14	1110	2.6	1880	5.63	279	1.08	1500	4.99
O=C(Nc1n[nH]c2nnc(-c3cccnc3)cc12)C1CC1	> 11300	> 25	7370	> 25	4760	> 25	8970	> 25	1650	> 20.3	1740	> 25	51	0.17	> 16100	> 25	1070	> 25	621	> 25
CC(C)(C)CC(N)=O		> 100		> 100		> 100		> 100		> 100		> 100		> 100		> 100		> 100		> 100
Cn1cc(C2=C(c3cn(C)c4ccccc34)C(=O)NC2=O)c2ccccc21	95	> 6.61	2240	> 25	775	> 25	880	> 25	2490	> 25	235	> 25	457	> 25	1900	> 25	720	> 25	1510	> 25
O=c1ssc(Cl)c1Cl		> 10		> 10		> 10		> 8.11		> 6.86		9.04		> 10		> 10		> 10		> 10
CN1C/C=C/CCOc2cccc(c2)-c2ccnc(n2)Nc2cccc(c2)C1	36.6	0.153	32.8	0.128	37.6	0.416	39.6	0.969	25.1	0.0849	98.9	> 20.8	35.6	0.11	39.1	0.181	30.9	1.17	174	3.82
COc1ccc(Nc2cc(C)nc(NCCCNc3ccnc4cc(Cl)ccc34)n2)cc1	1350	2.64	1810	3.44	1100	2.67	1610	3.51	1520	2.95	495	2.28	1490	3.39			1160	2.74	1670	3.2
COC1=CC(c2ccc[nH]2)=N/C1=C\c1[nH]c(C)c(C(=O)CCCCC(=O)Oc2ccc3c(c2)CCC2C3CC[C@]3(C)[C@@H](O)CC[C@@H]23)c1C (some centres undefined)	5470	> 100	3580	> 100			4330	> 100	5080	> 100			> 100000	> 100	4780	> 100	863	> 100	> 100000	> 100
CCN1Cc2nc3sc(C)c(C)c3c(=O)n2C=C1C	6480	39.1	5830	24.7	3900	15.8	2750	12.6	5290	> 100	3350	17.8	20300	> 100			3940	53.3	74100	> 100
COc1cc([N+](=O)[O-])c(OC)cc1-c1nc2sc(Cl)cn2c1/C=N/NC1=NCCN1	3650	> 100			269				966		3560	> 100	1850	3.57	1390	2.8	431	> 100	1880	3.48
CC1OC(OC2C(OC3CCC4(C)C(CCC5(C)C4CC=C4C6CC(C)(C)CCC6(C(=O)O)CCC45C)C3(C)CO)OCC(O)C2O)C(O)C(O)C1O (centres undefined)		43		26.1		44.7		55.4		13.1		44.7		31.1				1.91		33.5
Clc1ccc(OCc2nnc3n2N=C(c2ccc(Cl)cc2Cl)CS3)cc1	22400	59.8	14000	31.4	16000	51.8	31600	> 100	14800	34.5	32500	> 100			16400	36.3	27800	69.2	42800	> 100
Cn1c(NCC(O)CN2CCCC2)cc(=O)n(C)c1=O (centres undefined)	> 100000	> 100	> 100000	> 100	> 100000	> 100	> 100000	> 100	> 100000	> 100	> 100000	> 100	> 100000	> 100			> 100000	> 100	> 100000	> 100
CC(=O)Nc1ccc(COC(O)CN2CCCCC2)cc1[N+](=O)[O-] (centres undefined)		> 100		> 100		> 100		> 100		> 100		> 100		> 100		> 100		> 100		
COc1ccc(C2C=C(c3ccc4c(c3)OCO4)Oc3c2c(=O)oc2ccccc32)cc1OC (centres undefined)		0.529		> 100		> 85.5		> 100		> 100				7.21		> 100		> 100		> 69.6
O=S(=O)(/N=c1/scc(-c2ccccc2)n1-c1ccccc1)c1ccc(N2N=C3c4ccccc4CC3C2c2cccs2)cc1 (centres undefined)	38700	> 100	60300	> 100	82000	> 100	94200	> 100	> 100000	> 100		> 100			81500	> 100	29100	> 100	> 100000	> 100
Clc1ccc(-c2cc(-c3ccccc3)nc(NCCNc3ccnc4cc(Cl)ccc34)n2)cc1	1770	3.27	1840	3.37	1670	3.26	1700	3.48	1380	2.86	1620	3.53	1640	3.31			1720	3.73	1710	3.29
